Laboratory results from patent US9999621B2, “Medical use of artemisinin compounds and gephyrin agonists” (CeMM-Forschungszentrum für Molekulare Medizin GmbH, priority 2014, dated 2018).
Like-named read-outs stand apart in the source and are kept apart here.

Columns and labels:
[1] = system: alphaTC1 cells; assay: Insulin expression in alpha cell line, immunofluorescence; assay type: cell-based, mouse; settings: for insulin expression in alpha cells: alphaTC1 cells, immunofluorescence
[2] = system: Min6 cells overexpressing ARX; assay: High-throughput screen for functional repressors of ARX, insulin immunofluorescence; assay type: cell-based, mouse
Method: Mouse pancreatic cell lines αTC1 (provided by Novo Nordisk) and βTC3 (provided by Novo Nordisk) were grown in low-glucose DMEM supplemented by 10% FBS, 50 U/mL penicillin and 50 μg/mL streptomycin. Mouse pancreatic cell lines Min6 (provided by Novo Nordisk) with Doxycycline inducible construct was grown in high-glucose DMEM supplemented by 15% Tet System Approved FBS (Clonetech 631106), 71 uM 2-mercaptoethanol, 50 U/mL penicillin and 50 ug/mL streptomycin. The cell culture for human islets followed established protocols (Walpita et al., 2012).
Compounds (50 nL) were transferred to black optical suitable 384-well plate (Corning 3712) from DMSO stock plates using acoustic transfer (Labcyte Inc.). Min6 cells (3000 cells per well) were plated in 50 ul media on top of the compounds. Three days after treatment, cells were fixed in 3.7% formaldehyde for ten minutes at room temperature. Following PBS washing, cells were fixed with cold pure methanol at −20° C. for 10 minutes, permeabilized by 1% Triton X-100 in PBS for 30 minutes and blocked by 3% BSA in PBS for 30 minutes. Twenty microliters of primary anti-insulin antibody, diluted in 1:2000 in 1.5% BSA, was added per well and incubated in 4° C. overnight. […]
Images were taken by an automated microscope (Perkin Elmer Operetta) using a 20× objective. […] Images were analyzed by the Harmony (Perkin Elmer) software. […]

[3] = target: T1, gephyrin (Mus musculus, UniProt Q8BUV3); assay: Gephyrin protein levels in alpha cells, Western blot and immunofluorescence; assay type: cell-based; set-up: endogenous in cells; host or cells: aTC1 mouse pancreatic alpha cell line; settings: alpha cell line
T1 sequence (Q8BUV3 1-769): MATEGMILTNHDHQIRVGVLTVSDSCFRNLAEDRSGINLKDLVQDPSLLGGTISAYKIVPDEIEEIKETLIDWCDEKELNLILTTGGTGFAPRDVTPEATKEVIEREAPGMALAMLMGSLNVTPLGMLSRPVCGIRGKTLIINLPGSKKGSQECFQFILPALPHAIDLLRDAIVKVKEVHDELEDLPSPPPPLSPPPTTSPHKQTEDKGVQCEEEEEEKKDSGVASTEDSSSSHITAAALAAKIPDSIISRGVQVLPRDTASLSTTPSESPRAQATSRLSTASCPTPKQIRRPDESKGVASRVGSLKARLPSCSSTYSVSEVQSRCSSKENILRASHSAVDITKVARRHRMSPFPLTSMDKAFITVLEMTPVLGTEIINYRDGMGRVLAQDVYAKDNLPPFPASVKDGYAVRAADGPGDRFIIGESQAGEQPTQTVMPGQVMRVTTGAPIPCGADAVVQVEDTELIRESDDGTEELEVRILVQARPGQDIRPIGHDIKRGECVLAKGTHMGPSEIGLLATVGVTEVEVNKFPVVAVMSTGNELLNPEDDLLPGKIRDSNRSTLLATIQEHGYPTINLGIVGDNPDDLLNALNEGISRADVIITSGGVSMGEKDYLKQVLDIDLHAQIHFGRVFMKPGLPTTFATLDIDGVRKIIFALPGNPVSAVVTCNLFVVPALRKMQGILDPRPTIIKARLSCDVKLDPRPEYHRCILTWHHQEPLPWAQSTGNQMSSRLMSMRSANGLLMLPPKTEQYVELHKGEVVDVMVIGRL
Method: Whole cell extracts were generated by lysing cells in NP-40 buffer containing 150 mM sodium chloride, 1.0% NP-40 and 50 mM Tris, pH 8.0 supplemented by Protease Inhibitor Cocktail (Roche). The whole-cell lysate (30 μg) was loaded onto a SDSpolyacrylamide gel for electrophoresis at 30 mA per gel, and then transferred by electrophoresis to a nitrocellulose membrane (GE Healthcare Life Science). All the blots were incubated with the corresponding primary antibodies diluted in 1:1000 in 5% milk at 4° C. overnight and with HRP-labeled secondary antibodies (diluted 1:20000) for 1 h. The signals were detected using ECL Prime Western blotting Detection Reagent (Amersham).

[4] = target: T1, gephyrin; assay: Chemical proteomics pull-down with artesunate matrix, competition by free artemether; assay type: binding; set-up: using 10 mg total cell lysate as protein input per replicate; endogenous in cells; host or cells: cell lysate; settings: artesunate coupled to solid support, with and without competing free artemether
Method: (§1) Drug-affinity matrices were prepared essentially as described previously (Huber et al, 2014). Briefly, ethylenediamine (2.7 μL, 40 μmol), ethanolamine (9.7 μL, 160 μmol), and triethylamine (15 μL, 108 μmol) were added to 500 μL NHS-activated Sepharose 4 Fast Flow beads (GE Healthcare Bio-Sciences AB, Uppsala, Sweden) and the reaction was put on a rotary shaker for 24 h. Beads were washed and resuspended in DMSO and NHS-activated artesunate (100 μL, 1.00 μmol) was added to the suspension, and the mixture was put on a rotary shaker for 24 h. Unreacted beads were blocked by addition of NHS-acetate (10 μmol) and triethylamine (25 μL, 180 μmol), followed by agitation on a rotary shaker for 24 h. After washing with DMSO and lysis buffer, beads were incubated with cell lysates.
(§2) Affinity chromatography and elution were performed in duplicate as reported previously (Huber et al, 2014), using 10 mg total cell lysate as protein input per replicate. […]
(§3) The initial peptide identifications were used to deduce independent linear transformations for precursor and fragment masses that would minimize the mean square deviation of measured masses from theoretical. […] A false discovery rate (FDR) of <1% for protein identifications and <0.1% for peptides (including the ones exported with lower scores) was determined by applying the same procedure against a database of reversed protein sequences. […]

[5] = system: CUL3; assay: as above; assay type: binding, mouse; settings: artesunate coupled to solid support, with and without competing free artemether
Method: as §1, §2, §3

[6] = target: T2, Btbd9 (Mus musculus, UniProt Q8C726); assay: as above; assay type: binding; settings: artesunate coupled to solid support, with and without competing free artemether
T2 construct: using 10 mg total cell lysate as protein input per replicate; endogenous in cells; host or cells: cell lysate
T2 sequence (Q8C726 1-612): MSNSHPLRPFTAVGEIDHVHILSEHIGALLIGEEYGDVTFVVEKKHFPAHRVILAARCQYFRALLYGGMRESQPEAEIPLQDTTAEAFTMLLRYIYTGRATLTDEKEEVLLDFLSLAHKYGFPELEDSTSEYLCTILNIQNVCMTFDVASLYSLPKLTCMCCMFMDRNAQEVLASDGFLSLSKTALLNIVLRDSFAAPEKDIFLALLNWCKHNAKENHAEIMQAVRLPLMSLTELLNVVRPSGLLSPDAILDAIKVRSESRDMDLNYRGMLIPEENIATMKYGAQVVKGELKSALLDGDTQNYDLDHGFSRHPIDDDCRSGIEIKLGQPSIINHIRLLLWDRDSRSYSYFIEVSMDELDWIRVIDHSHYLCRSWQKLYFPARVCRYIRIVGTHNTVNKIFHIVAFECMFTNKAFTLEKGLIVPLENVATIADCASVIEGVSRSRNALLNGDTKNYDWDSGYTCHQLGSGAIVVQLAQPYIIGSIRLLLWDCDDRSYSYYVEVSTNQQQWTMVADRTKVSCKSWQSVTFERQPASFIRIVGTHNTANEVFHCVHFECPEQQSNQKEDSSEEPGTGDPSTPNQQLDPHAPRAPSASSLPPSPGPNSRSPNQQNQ
Method: as §1, §2, §3

[7] = system: aTC1 cells; assay: GABAR antagonists combined with artemether, insulin immunofluorescence; assay type: cell-based, mouse

SMILES: COC1OC2OC3(C)CCC4C(C)CCC(C1C)C24O3 (centres unmarked) [Deoxyartemether]
- insulin expression in alpha cells [1]: no effects

SMILES: CO[C@H]1O[C@@H]2O[C@@]3(C)CC[C@H]4[C@H](C)CC[C@@H]([C@H]1C)[C@@]24OO3 [artemether]
- EC50 ([2]; Mus musculus, Min6 cells overexpressing ARX, dose response, immunofluorescence (FIG. 3c), read-out: half maximum effective concentration): < 1 µM
- EC50 ([1]; Mus musculus, 72 h, alpha cells, inducing insulin expression, immunofluorescence (FIG. 3d), read-out: half maximum effective concentration): < 10 µM

SMILES: C[C@@H]1CC[C@H]2[C@@H](C)C(=O)O[C@@H]3O[C@@]4(C)CC[C@@H]1[C@]32OO4 [artemisinin, (3R,5aS,6R,8aS,9R,12S,12aR)-octahydro-3,6,9-trimethyl-3,12-epoxy-12H-pyrano[4,3-j]-1,2-benzodioxepin-10(3H)-one]
- gephyrin protein levels [3]: dose-dependent increase

SMILES: C[C@H]1[C@H](OC(=O)CCC(=O)O)O[C@@H]2O[C@@]3(C)CC[C@H]4[C@H](C)CC[C@@H]1[C@@]24OO3 [artesunate]
- specific interactor identified by mass spectrometry [4]: top specific interactor
- insulin levels in the presence of ARX (ARX overexpression phenotype) ([2]; Min6 cells induced to overexpress ARX, 72 hours, immunofluorescence): active
- insulin expression in alpha cells [1]: active
- enrichment in pull-down [5]: strong enrichment
- enrichment in pull-down [6]: strong enrichment

SMILES: CCO[C@H]1O[C@@H]2O[C@@]3(C)CC[C@H]4[C@H](C)CC[C@@H]([C@H]1C)[C@@]24O3 [deoxyarteether]
- insulin expression in alpha cells [1]: inactive

SMILES: COc1ccc(-c2ccc(=N)n(CCCC(=O)O)n2)cc1 [gabazine]
- effect of GABAR antagonist on the effects of artemether [7]: inhibited the effects of artemether
- effect of GABAR antagonist on the effects of artemether ([7]; listed as Gabazine): inhibits the effects of Artemether

SMILES: Cc1ccsc1C(=CCCN1CCC[C@@H](C(=O)O)C1)c1sccc1C [thiagabine]
- insulin expression in alpha cells [1]: increased the insulin expression
- insulin expression in alpha cells ([1]; listed as Thiagabine): increases insulin production
